Measured values from US6022969A, “Compositions and methods for treating mast-cell mediated conditions” (AXYS Pharmaceuticals, Inc., priority 1995, dated 2000).
Blank lines part the entries; values can stand above or below the compound they belong to.

Columns and labels:
antigen-challenged sheep [1] = experiment: Allergic sheep model of asthma: Specific Lung Resistance (SRL) after antigen challenge; assay type: in vivo
Protocol: (§1) The initial asthmatic response can be evaluated in guinea pigs, and dogs, and particularly, with a basenji-greyhound cross strain which develops nonspecific airway hyperresponsiveness to numerous nonallergenic substances, such as methacholine and citric acid. […] In dual responding animals, the initial asthmatic response (IAR) is followed by a late asthmatic response (LAR) at 6-8 hours post-exposure.
The allergic sheep model (see below) was used to evaluate the potential antiasthmatic effects of the compounds of the present invention.
(§2) The allergic sheep model of asthma was employed for he in vivo evaluation of the compounds of the invention as antiasthmatics. These methods have been published previously (see Abraham et al. (1983) Am. Rev. Respir. Dis. 128:839-844; Allegra et al. (1983) J. Appl. Physiol. 55:726-730; Russi et al. (1985) J. Appl. Physiol. 59:1416-1422; Soler et al. (1989) J. Appl. Physiol. 67:406-413. Each sheep serves as its own control. Body weights for these animals ranged from 20-50 kilograms.
The peak early response was taken as the average of the maximum values occurring immediately post-challenge. Peak late responses were calculated by averaging the maximum response values obtained for each animal within the 6-8 hour time period. This approach is conservative and eliminates the possible reduction in the late response due simply to averaging.
Three doses of the compound (2 mg in 10 mL water) were administered to sheep through an intergastric tube 1 hr before challenge, 4 hours post-challenge, and 24 hours post-challenge.

antigen-challenged sheep [2] = experiment: Allergic sheep model of asthma: airway hyperresponsiveness to carbachol (PC400) 24 hours after antigen challenge; assay type: in vivo
Protocol: as §1, §2
Twenty-four hours after antigen challenge in both the control and drug trial, the sheep developed airway hyperresponsiveness. Airway hyperresponsiveness is expressed as PC400, the concentration of carbachol that causes a 400% increase in SRL; therefore, a decrease in PC400 indicates hyperresponsiveness. […] The number of breath units fell to 12 for those animals in the control group.

tryptase = experiment: In vitro tryptase inhibition assay (hydrolysis of tosyl-Gly-Pro-Lys-p-nitroanilide); assay type: biochemical, human; settings: for Ki: tosyl-Gly-Pro-Lys-p-nitroanilide 0.5 mM, pH 8.2, 1 h pre-incubation, room temperature
Protocol: The compounds to be assayed (approximately 1 mg) were dissolved in 200 μL dimethylsulfoxide (DMSO) and diluted 1:10 into buffer containing 50 millimolar (mM) Tris-HCl (pH 8.2), 100 mM sodium chloride, and 0.05% polyoxyethylenesorbitan monolaurate (Tween-20®, available from Sigma, St. Louis, Mo.). Seven additional threefold dilutions were made from the initial dilution into the same buffer supplemented with 10% DMSO. Aliquots (50 microliters, μL) from each of the eight dilutions in the series were transferred to individual wells in a 96-well U-bottom microtiter plate. 25 μL of a stock solution of tryptase was added to each well and the samples were mixed and incubated for one hour at room temperature (tryptase was purified from human lung and skin tissue preparations, HMC-1 (human mast cell line) and also obtained from commercial sources (ICN Biomedicals, Irvine, Calif.; Athens Research & Technology, Athens, Ga.)). […] The tryptase solution was prepared by placing 60 μg/mL of tryptase into solution with 10 mM MES (2-[N-Morpholino]ethane sulfonic acid) containing 2 mM CaCl2, 20% glycerol and 50 μg/mL heparin. The enzyme reaction was initiated with the addition of the synthetic tripeptide substrate, tosyl-Gly-Pro-Lys-p-nitroanilide (available from Sigma, 25 μL; 0.5 mM final concentration).
However, Ki ' varies with the enzyme concentration used in the enzyme assay. […] The y-intercept of a replot of IC50 (ordinate) versus tryptase concentration (abscissa) produces a value for Ki '.
The inhibition constants (Ki ', micromolar (μM)) were determined for the compounds of the present invention.

Compound: N=C(N)Nc1ccc(CNC(=O)N2CCN(C(=O)O[C@H]3CCC[C@@H](OC(=O)N4CCN(C(=O)NCc5ccc(NC(=N)N)cc5)CC4)CCC3)CC2)cc1 [Compound 3, cis-1,5-Cyclooctylene bis[4-(4-guanidinobenzylcarbamoyl)-1-piperazinecarboxylate]]
- early and late responses to antigen challenge, SRL (aerosol) (antigen-challenged sheep [1]; Compound 3: aerosol 50 μg 0.5 h before, 4 h and 24 h after challenge, n=3 (FIG. 1), Compound 2: aerosol 3 x 0.1 mg (FIG. 5)): significant attenuation of the early and late responses to the antigen challenge
- early and late phase response to antigen challenge, SRL (aerosol pretreatment) (antigen-challenged sheep [1]; aerosol predosing 0.5 mg/day x 3 days plus 0.5 mg 0.5 h before challenge (FIG. 7)): significant attenuation of early and late phase response to antigen challenge
- early phase SRL (oral) (antigen-challenged sheep [1]; intragastric 2 mg in 10 mL water 1 h before, 4 h and 24 h post-challenge, untreated about 250): about 175
- late phase SRL (oral) (antigen-challenged sheep [1]; intragastric 2 mg in 10 mL water 1 h before, 4 h and 24 h post-challenge, untreated over 200): about 50
- anti-asthmatic properties when delivered orally (antigen-challenged sheep [1]; oral, 3 x 2 mg): significant anti-asthmatic properties when delivered orally
- airway function in antigen challenged sheep (aerosol) (antigen-challenged sheep [2]; aerosol 3 x 50 μg (FIG. 2)): significant improvement in airway function
- airway hyperresponsiveness, PC400 (aerosol) (antigen-challenged sheep [2]; aerosol 3 x 50 μg, 24 h after challenge, baseline 32, control 12 (FIG. 2)): ~32 breath units
- airway function / PC400 (aerosol pretreatment) (antigen-challenged sheep [2]; aerosol predosing 0.5 mg/day x 3 days plus 0.5 mg 0.5 h before challenge (FIG. 8)): significant improvement in airway function
- onset of hyperresponsiveness (PC400, aerosol), result in words (antigen-challenged sheep [2]; aerosol, 24 h after antigen challenge, Compound 3 3 x 50 μg (FIG. 2), Compound 2 3 x 0.1 mg (FIG. 6)): block the onset of hyperresponsiveness
- type of tryptase inhibition (tryptase; apparent affinity comparable to enzyme concentration): tight binding inhibitor

Compound: N=C(N)Nc1ccc(CNC(=O)N2CCN(C(=O)O[C@H]3CCC[C@@H](OC(=O)N4CCN(C(=O)NCCCN)CC4)CCC3)CC2)cc1 [Compound 53, cis-5-[4-(3-aminopropylcarbamoyl)piperazin-1-ylformyloxy]cyclooctyl 4-(4-guanidinobenzylcarbamoyl)-1-piperazinecarboxylate]
- Ki (tryptase): 44 nM

Compound: N=C(N)Nc1ccc(CNC(=O)N2CCN(C(=O)O[C@H]3CCC[C@@H](OC(=O)N4CCN(C(=O)NCCCCCCN)CC4)CCC3)CC2)cc1 [Compound 54, cis-5-[4-(6-aminohexylcarbamoyl)piperazin-1-ylformyloxy]cyclooctyl 4-(4-guanidinobenzylcarbamoyl)-1-piperazinecarboxylate]
- Ki (tryptase): 20 nM

Compound: trans-1,4-cyclohexylene bis[4-(4-guanidinobenzylcarbamoyl)-1-piperazinecarboxaldehyde] [Compound 21]
- Ki (tryptase): 60.9 nM

More lines, now with the values ahead:

- Ki (tryptase): 3.4 nM
Compound: N=C(N)Nc1ccc(CNC(=O)N2CCN(C(=O)OC[C@H]3CC[C@@H](COC(=O)N4CCN(C(=O)NCc5ccc(NC(=N)N)cc5)CC4)CC3)CC2)cc1 [Compound 49, cis-1,4-cyclohexylenedimethylene bis[4-(4-guanidinobenzylcarbamoyl)-1-piperazinecarboxylate]]

- Ki (tryptase): 0.45 nM
Compound: N=C(N)Nc1ccc(CNC(=O)N2CCN(C(=O)O[C@H]3CCC[C@@H](OC(=O)N4CCN(C(=O)NCCCCCN)CC4)CCC3)CC2)cc1 [Compound 50, cis-5-[4-(5-aminopentylcarbamoyl)piperazin-1-ylformyloxy]cyclooctyl 4-(4-guanidinobenzylcarbamoyl)-1-piperazinecarboxylate]

- Ki (tryptase): 3.8 nM
Compound: N=C(N)Nc1ccc(CNC(=O)N2CCN(C(=O)O[C@H]3CCC[C@@H](OC(=O)N4CCN(C(=O)NCCCCN)CC4)CCC3)CC2)cc1 [Compound 51, cis-5-[4-(4-aminobutylcarbamoyl)piperazin-1-ylformyloxy]cyclooctyl 4-(4-guanidinobenzylcarbamoyl)-1-piperazinecarboxylate]

- Ki (tryptase): 0.48 nM
Compound: N=C(N)Nc1ccc(CNC(=O)N2CCN(C(=O)O[C@H]3CCC[C@@H](OC(=O)N4CCN(C(=O)NC[C@H]5CC[C@H](CN)CC5)CC4)CCC3)CC2)cc1 [Compound 52]

- Ki (tryptase): 12.2 nM
Compound: cis-1,5-tetracyclo[3.3.1.1^3,7 ]decylenedimethylene bis[4-(4-guanidinobenzylcarbamoyl)-1-piperazinecarboxaldehyde] [Compound 32]
